Laboratory results from US10226472B2, “Methods for the treatment of breast cancer” (SYNDAX PHARMACEUTICALS, INC., priority 2011, dated 2019).
“And” between values parts separate entries of the source, which are not always exact repeats. Equal entries are not always repeated. Blank lines part the entries; values can stand above or below the molecule they belong to.

Columns and labels:
[1] = in vivo; cited from earlier work
[2] = Plasma entinostat concentration at acetylation sampling time points; assay type: in vivo, human; conditions: D8 and D15 time points used for acetylation evaluation; generally at or below the assay detection limit
[3] = Phase 2 study of exemestane with and without entinostat: safety and tolerability (adverse events); assay type: in vivo, human
Procedure: (§1) Secondary Outcome Measures are to compare objective response rate (ORR) and clinical benefit rate (CBR), and to evaluate the safety and tolerability of entinostat in combination with exemestane as measured by adverse events and laboratory safety parameters.
Safety was assessed by adverse events (AEs), using the National Cancer Institute Common Terminology Criteria for Adverse Events, version 3.0, electrocardiograms, hematology and serum chemistries, ECOG performance status, and vital signs.
Safety was assessed by an independent Data Safety Monitoring Board. All participating investigators and patients remain blinded to the assigned study treatment, as post-treatment follow-up for OS is continuing.

[4] = system: locally recurrent or metastatic estrogen receptor-positive breast cancer; experiment: Phase 2 randomized, double-blind study of exemestane with and without entinostat (ENCORE-301): efficacy; assay type: in vivo, human; conditions: for median progression-free survival (PFS) / overall survival: intent-to-treat population; for overall survival: median follow-up of 18 months
Source text: as §1
The primary endpoint of the study was progression-free survival. Other endpoints included objective response rate (ORR), clinical benefit rate (CBR), overall survival (OS) and safety and tolerability. All patients had received prior hormonal therapy (1 prior line 42%; >1 prior line 58%), and 33% had received prior chemotherapy in the advanced breast cancer setting.
One hundred thirty (130) patients were enrolled between June 2008 and July 2010 at 38 sites in North America, Central Europe, and Russia. All patients provided written informed consent. […] Randomization was stratified by 1) prior NSAI treatment setting (adjuvant/metastatic); 2) metastases in bone only (yes/no); and 3) geographic region (North America/Central Europe and Russia). The randomization schedule was prepared and maintained by an independent statistical service provider. The protocol allowed for enrollment of approximately 20% of patients with non-measurable disease.
Postmenopausal women with ER+BC currently experiencing disease relapse or progression while receiving a NSAI were eligible. Patients either had 1) relapsed after adjuvant NSAI treatment administered for at least 12 months or 2) progressed after NSAI treatment administered for at least 3 months in the metastatic/advanced setting. One prior line of chemotherapy in the metastatic setting was permitted if given before the most recent NSAI. Within 4 weeks prior to starting study treatment, patients must have had at least 1 measurable lesion (≥20 mm by conventional techniques or ≥10 mm by spiral computed tomography [CT] scan), or with bone only metastases, a positive bone scan confirmed by magnetic resonance imaging (MRI) or positron emission tomography (PET)-CT. Additional requirements included, an Eastern Cooperative Oncology Group (ECOG) performance status of 0 or 1; adequate hematologic parameters; and creatinine, aspartate transaminase, and alanine transaminase <2.5 times the upper limit of normal. Patients with prior fulvestrant, exemestane, entinostat, or any other HDACi were excluded.
Treatment cycles were 28 days in length. Patients were evaluated on Day (D) 1, D8, and D15 during Cycle (C) 1 and on D1 of all subsequent cycles. Peripheral blood samples were taken in a subset of patients pre- and post-dosing on D1, 8, or 15 of C1. Patient/disease response assessments were performed on D22 of C2 and every other cycle thereafter. After completing study treatment, patients entered into post-treatment follow-up for evaluation of overall survival and subsequent therapies. Patients were to be followed until death, withdrawal of consent, or study closure by the sponsor.
Disease was evaluated using the Response Evaluation Criteria in Solid Tumors (RECIST), version 1.0. Contrast-enhanced CT scans were obtained at baseline, every other cycle for 12 months, and every third cycle thereafter. PD also was assessed by bone scan and clinical symptoms, as appropriate.
The primary endpoint was PFS, defined as the number of months from randomization to documented PD or death due to any cause. Secondary endpoints included overall response (OR; complete response [CR]+partial response [PR]) and clinical benefit rates (CBR; OR+stable disease [SD] for ≥6 months). Overall Survival (OS) was an exploratory endpoint.
PFS was summarized descriptively using the Kaplan-Meier method and reported based on 116 progression events as of March 2012. The HR was estimated from a stratified Cox proportional hazards model, with placebo serving as the reference in the calculation. The primary inferential comparison between groups was made using the log-rank test, stratified by the 3 randomization factors. For patients who died before documentation of PD, death date was used as the PD date. […]

[5] = system: advanced BC demonstrating PD or recurrence following a NSAI; conditions: reported by Chia, et al; cited from earlier work
[6] = system: locally recurrent or metastatic estrogen receptor-positive breast cancer; experiment: PFS by change in protein lysine acetylation in PBMCs (biomarker subset of the Phase 2 study); assay type: in vivo, human
Procedure: The primary endpoint was progression-free survival (PFS).
Protein lysine acetylation was measured by multi-parameter flow cytometry in peripheral blood mononuclear cells (PBMCs; CD19+ B cells, CD3+ T cells, and CD14+ monocytes) collected pre and post-treatment on D1, D8, and D15 of C1 to explore the association with PFS.
The association of PFS with degree of change in protein lysine acetylation from baseline in PBMCs was evaluated as an exploratory, post-hoc analysis in a subset of patients using the Cox proportional hazard model. Analyses in all 3 cell types (B cells, T cells, monocytes) was performed for consistency of results and to aid in selection of optimal cell type for analysis in future studies.
Baseline characteristics were consistent with the overall study population (FIG. 17). Hyperacetylation in EE patients was associated with a prolonged median PFS consistent across all cell types tested (FIG. 18): 8.5 versus 2.7 months for low acetylators (HR=0.32, 95% CI 0.13, 0.79) (B cells); 6.6 versus 3.6 months for low acetylators (HR=0.44, 95% CI 0.18, 1.08) (T cells); and 6.2 versus 3.6 months for low acetylators (HR=0.50, 95% CI 0.21, 1.20) (monocytes). […] The percent change in acetylation from baseline was determined based upon the last sample obtained. The degree of change in acetylation was then dichotomized into “high” (i.e., above the median or “hyperacetylators”) and “low” (i.e., below the median) subgroups using a non-model based approach: patients with a change from baseline that was greater than or equal to the 50th percentile (median) of the overall distribution were assigned to the “high” group; patients with a change less than the 50th percentile were assigned to the “low” group. The cut-point for the analysis (50th percentile) was determined a priori, but was not based on findings from earlier studies.
Percent change is calculated and related to progression free survival (PFS) outcome data. Hyperacetylation independent of treatment arm is defined as a percent change increase above the calculated median percent change for each cell type.

[7] = listed as exemestane plus placebo

- plasma entinostat concentration [2]: < 0.5 ng/mL
SMILES: Nc1ccccc1NC(=O)c1ccc(CNC(=O)OCc2cccnc2)cc1 [entinostat, N-(2-aminophenyl)-4-[N-(pyridine-3-yl)methoxycarbonylamino-methyl]-benzamide]
- half-life [1]: about 100 hours
- neutropenia cases attributed to entinostat ([3]; EE group, 13 of 19 cases): 68%
- tolerability / safety profile ([3]; Phase 2 clinical trial): acceptable safety profile

SMILES: C=C1C[C@@H]2[C@H](CC[C@]3(C)C(=O)CC[C@@H]23)[C@@]2(C)C=CC(=O)C=C12 [EP, exemestane]
- median overall survival ([4]; 23-month follow-up): 19.8 months
- incidence of death ([4]; Example 1c analysis): 65%
- median OS ([4]; Example 1c analysis, ITT population): 19.8 months
- clinical benefit rate (CBR; OR+SD for >=6 months) ([4]; ITT population): 25.8%
- overall response (OR; CR+PR) ([4]; ITT population, RECIST 1.0): 4.6%
- median progression-free survival (PFS) [4]: 2.3 months and 2.27 months
- median progression-free survival (PFS) ([4]; listed as exemestane alone): 2.3 months
- median progression-free survival (PFS) [4, 7]: 2.27 months and 2.3 months
- median progression-free survival (PFS) ([4]; listed as exemestane+placebo): 2.3 months
- overall survival [4]: 20.3 months
- overall survival [4, 7]: 20.33 months
- median PFS [5]: 3.7 months
- median PFS, high acetylators (hyperacetylation) ([6]; B cells): 1.9 months and 1.92 months
- median PFS, low acetylators ([6]; B cells): 1.8 months
- median PFS, high acetylators (hyperacetylation) ([6]; T cells): 1.77 months
- median PFS, high acetylators (hyperacetylation) ([6]; monocytes): 1.87 months
- serious AE rate ([3]; Example 1a): 12%
- incidence of serious AEs ([3]; Example 1c, Safety Population): 12%
- AEs leading to dose modification ([3]; Safety Population): 6%
- AEs leading to study discontinuation ([3]; Safety Population): 2%
- G4 AEs ([3]; Safety Population): 3%
- Grade (G) 3 AEs ([3]; Safety Population): 23%
- rate of AEs ([3]; Safety Population, irrespective of study drug relationship): 85%
